Measured values reported in patent US20040186066A1, “Method of treatment with nelfinavir” (AGOURON PHARMACEUTICALS, INC., priority 2003, published 2004).
Counter-ions that a name gives are not always drawn. Like-named read-outs stand apart in the source and are kept apart here.

Experiments:
[1] = Example 2: phase 1 crossover 3×3 study, fixed kilocalorie meal at 20% and 50% fat, single-dose pharmacokinetics of nelfinavir 250 mg tablets; format: in vivo, human (normal, healthy volunteers); conditions: for AUC / AUC(0-inf) / Cmax / AUC(0-t) / half-life / Tmax: human, plasma, oral, 1250 mg; for AUC: read-out: Nelfinavir AUC24; for AUC(0-t): read-out: AUC(0-tlqc), least-squares mean
Method: A study was conducted as a phase 1, randomized, open-label, crossover 3×3 study, designed to evaluate the impact of a fixed kilocalorie meal at 20% and 50% fat content on single-dose pharmacokinetic parameters of the nelfinavir 250 mg tablet formulation in normal, healthy volunteers. Subjects were dosed with 1250 mg of nelfinavir 3 times at one-week intervals and 24-hour PK profiles were collected following each of the doses. Each subject was assigned three meals with different fat contents prior to dosing (fasting, 500kcal with 20% fat, 500 kcal with 50% fat) using a Latin square design. Twenty-four subjects entered the study and twenty-two subjects completed it. Each subject received the following treatment in random order on Days 1, 8 and 15: 5×250 mg nelfinavir tablets with fasting; 5×250 mg nelfinavir tablets, with a meal comprising 500Kcal/20% fat; and 5×250 mg nelfinavir tablets with a meal having 500 Kcal/50% fat. The moderate calorie/low fat meal consisted of 500 Kcal with 20% fat (11.3 grams of fat). The moderate calorie/high fat meal consisted of 500 Kcal with 50% fat (27.8 grams of fat). Subjects were administered nelfinavir 1250-mg (five 250-mg tablets) on the morning of the pharmacokinetic evaluations. The nelfinavir terminal half-life (t½) in plasma is typically 3.5 to 5 hours. […] Subjects participated on an outpatient basis; however, subjects were admitted to the in-patient facility the evening prior to each PK evaluation and remained in the in-patient facility for approximately 16 hours post-dosing. The subjects returned the next morning (8 hours later) for their last 24 hr. pharmacokinetic blood draw. All pharmacokinetic evaluations were performed in the in-patient facility. Blood samples were collected and analyzed for plasma concentrations of nelfinavir and M8. For the fasting evaluation, subjects were required to complete an overnight fast of at least 10 hours prior to dosing in the morning. For the fed PK evaluations, subjects were required to complete an overnight fast of at least 10 hours, prior to receiving the protocol-specific standardized breakfast meal. Subjects were given 30 minutes to complete their standardized breakfast meal. Dosing was performed in the morning, immediately following the subject's completion of the standardized breakfast meal and after the subject's predose PK specimen had been collected. Subjects could not ingest water 1 hour prior to or 1 hour after dosing. A standardized lunch was given at least 4 hours after the morning dose and a standardized dinner was given at least 10 hours after the morning dose. Actual sampling times were used for all data evaluation. Mean Cmax and AUC values were calculated as the antilogs of least-squares mean log-transformed values (analogous to geometric means). Ratios and confidence intervals for Cmax and AUC values are also based on log-transformed values. Mean values for all other pharmacokinetic parameters are least-squares means. Ratios and confidence intervals for these parameters are based on untransformed values. Blood samples, 5 mL each, were collected as in Example 1. The timing of each sample collection was as follows: Predose and at 0.5, 1, 2, 3, 4, 6, 8, 12, 16 and 24 hours postdose on Days 1, 8, and 15. All blood samples were kept at […] (using either wet ice or cryoblock) until centrifugation. Blood samples were centrifuged within 1 hour of collection, at 3000 rpm (approximately 2619×g) for 15 minutes, to separate the plasma. The plasma samples were split evenly into 2 aliquots and stored in appropriately labeled polypropylene transport tubes. Plasma was stored frozen at […] or lower until analysis. Pharmacokinetic parameter values were calculated from plasma nelfinavir and M8 concentration-time data using standard noncompartmental pharmacokinetic methods as in Example 1. Plasma concentrations of nelfinavir and M8 were measured by validated high-performance liquid chromatography (HPLC) methods. […]

[2] = nelfinavir and nelfinavir plus M8; full breakfast 610 kcal vs light breakfast 271 kcal; once-daily with low-dose ritonavir; cited from earlier work
[3] = Kcal/Fat % 500/20% relative to fasting
[4] = Kcal/Fat % 500/50% relative to fasting
[5] = nelfinavir, moderate calorie/high fat meal (500 Kcal/50% fat) vs fasting
[6] = nelfinavir, moderate calorie/low fat meal (500 Kcal/20% fat) vs fasting

Nelfinavir AUC24 (×fasting) [1, 3]: 3.2 X
Nelfinavir AUC∞ (×fasting) [1, 3]: 3.0 X
Nelfinavir Cmax (×fasting) [1, 3]: 2.5 X
Nelfinavir AUC24 (×fasting) [1, 4]: 5.2 X
Nelfinavir AUC∞ (×fasting) [1, 4]: 5.1 X
Nelfinavir Cmax (×fasting) [1, 4]: 3.8 X
AUC ([1]; 1250 mg single dose, fasting): 10000 ng·h/mL
AUC(0-inf) ([1]; 1250 mg single dose, fasting, read-out: Nelfinavir AUC∞): 10700 ng·h/mL
Cmax ([1]; 1250 mg single dose, fasting, read-out: Nelfinavir Cmax): 1630 ng/mL
AUC ([1]; Kcal/Fat % 500/20%): 32600 ng·h/mL
AUC(0-inf) ([1]; Kcal/Fat % 500/20%, read-out: Nelfinavir AUC∞): 32700 ng·h/mL
Cmax ([1]; Kcal/Fat % 500/20%, read-out: Nelfinavir Cmax): 4000 ng/mL
AUC ([1]; Kcal/Fat % 500/50%): 52600 ng·h/mL
AUC(0-inf) ([1]; Kcal/Fat % 500/50%, read-out: Nelfinavir AUC∞): 54600 ng·h/mL
Cmax ([1]; Kcal/Fat % 500/50%, read-out: Nelfinavir Cmax): 6200 ng/mL
AUC(0-t) ([1]; nelfinavir, 5×250-mg tablets during moderate calorie/high fat meal (500 Kcal/50% fat)): 52600 ng·h/mL
AUC(0-inf) ([1]; nelfinavir, 5×250-mg tablets during moderate calorie/high fat meal (500 Kcal/50% fat), read-out: AUC(0-∞), least-squares mean): 54600 ng·h/mL
Cmax ([1]; nelfinavir, 5×250-mg tablets during moderate calorie/high fat meal (500 Kcal/50% fat), read-out: Cmax, least-squares mean): 6160 ng/mL
half-life ([1]; nelfinavir, 5×250-mg tablets during moderate calorie/high fat meal (500 Kcal/50% fat), read-out: t1/2 (terminal half-life), least-squares mean (converted)): 3.43 h
Tmax ([1]; nelfinavir, 5×250-mg tablets during moderate calorie/high fat meal (500 Kcal/50% fat), read-out: tmax, least-squares mean): 4.48 h
AUC(0-t) ([1]; nelfinavir, 5×250-mg tablets during moderate calorie/low fat meal (500 Kcal/20% fat)): 32600 ng·h/mL
AUC(0-inf) ([1]; nelfinavir, 5×250-mg tablets during moderate calorie/low fat meal (500 Kcal/20% fat), read-out: AUC(0-∞), least-squares mean): 32700 ng·h/mL
Cmax ([1]; nelfinavir, 5×250-mg tablets during moderate calorie/low fat meal (500 Kcal/20% fat), read-out: Cmax, least-squares mean): 4040 ng/mL
half-life ([1]; nelfinavir, 5×250-mg tablets during moderate calorie/low fat meal (500 Kcal/20% fat), read-out: t1/2 (terminal half-life), least-squares mean (converted)): 3.08 h
Tmax ([1]; nelfinavir, 5×250-mg tablets during moderate calorie/low fat meal (500 Kcal/20% fat), read-out: tmax, least-squares mean): 4.19 h
AUC(0-t) ([1]; nelfinavir, 5×250-mg tablets single dose, fasting (reference)): 10000 ng·h/mL
AUC(0-inf) ([1]; nelfinavir, 5×250-mg tablets single dose, fasting (reference), read-out: AUC(0-∞), least-squares mean): 10700 ng·h/mL
Cmax ([1]; nelfinavir, 5×250-mg tablets single dose, fasting (reference), read-out: Cmax, least-squares mean): 1630 ng/mL
half-life ([1]; nelfinavir, 5×250-mg tablets single dose, fasting (reference), read-out: t1/2 (terminal half-life), least-squares mean (converted)): 4.1 h
Tmax ([1]; nelfinavir, 5×250-mg tablets single dose, fasting (reference), read-out: tmax, least-squares mean): 2.42 h
half-life ([1]; nelfinavir, fasting subjects and test meals, similar, read-out: elimination t½, average (converted)): ~4 h
Tmax ([1]; nelfinavir, meal of 20% fat content (500 kcal), read-out: mean tmax longer relative to fasting subjects): ~2 h
Tmax ([1]; nelfinavir, meal of 50% fat content (500 kcal), read-out: mean tmax longer relative to fasting subjects): ~2 h
AUC increase compared to the fasting AUC ([1]; nelfinavir, 500 Kcal, 50% fat breakfast): 5.2 fold
AUC increase compared to the fasting AUC ([1]; nelfinavir, 500 kcal, 20% fat breakfast): 3.2 fold
% coefficient of variation (CV) for AUC(0-∞) ([1]; nelfinavir, fasting subjects): 75%
bioavailability higher relative to fasting subjects, based on AUC(0-∞) ([1]; nelfinavir, meal containing 20% fat (500 kcal)): approximately 3 fold
bioavailability higher relative to fasting subjects, based on AUC(0-∞) ([1]; nelfinavir, meal containing 50% fat (500 kcal)): ~5 fold
mean Cmax higher relative to fasting ([1]; nelfinavir, meal of 20% fat content (500 kcal)): approximately 2.5 fold
mean Cmax higher relative to fasting ([1]; nelfinavir, meal of 50% fat content (500 kcal)): ~3.8 fold
AUC(0-tlqc) ratio (100% × test/reference) [1, 5]: 524%
AUC(0-∞) ratio (100% × test/reference) [1, 5]: 508%
Cmax ratio (100% × test/reference) [1, 5]: 378%
t1/2 ratio (100% × test/reference) [1, 5]: 83.7%
tmax ratio (100% × test/reference) [1, 5]: 186%
AUC(0-tlqc) ratio (100% × test/reference) [1, 6]: 325%
AUC(0-∞) ratio (100% × test/reference) [1, 6]: 305%
Cmax ratio (100% × test/reference) [1, 6]: 248%
t1/2 ratio (100% × test/reference) [1, 6]: 75.0%
tmax ratio (100% × test/reference) [1, 6]: 173%
% coefficient of variation (CV) for AUC(0-∞) ([1]; nelfinavir, test meal containing 20% fat): 48%
% coefficient of variation (CV) for AUC(0-∞) ([1]; nelfinavir, test meal containing 50% fat): 43%
Structure (SMILES): Cc1c(O)cccc1C(=O)N[C@@H](CSc1ccccc1)[C@H](O)CN1C[C@H]2CCCC[C@H]2C[C@H]1C(=O)NC(C)(C)C (relative stereo) [nelfinavir, [3S-(3R*, 4aR*, 8aR*, 2′S*, 3′S*)]-2-[2′ hydroxy-3′-phenylthiomethyl-4′-aza-5′-oxo-5′-(2″-methyl-3″-hydroxy-phenyl)pentyl]-decahydroiso-quinoline-3-N-t-butylcarboxamide methanesulfonic acid salt]
effect of meal consumption on AUC24h, corr and Cmin [2]: significant effect
